Measured values published in patent US5073566A, “Angiotensin II antagonist 1,3-imidazoles and use thereas” (Eli Lilly and Company, priority 1989, dated 1991).
Where two headings read alike, the source gives them in different places.

Experiments:
[1] = target: T1, angiotensin-induced vasoconstriction (rabbit aorta) (Oryctolagus cuniculus, UniProt P34976); assay: Rabbit Aorta Test System: antagonism of angiotensin II-induced contraction of aortic rings; assay type: cell-based, New Zealand white rabbits
T1 construct: the thoracic aortas were removed and cleaned of excess fat and connective tissue; from tissue; host or cells: thoracic aorta rings of New Zealand white rabbits
T1 sequence (P34976 1-359): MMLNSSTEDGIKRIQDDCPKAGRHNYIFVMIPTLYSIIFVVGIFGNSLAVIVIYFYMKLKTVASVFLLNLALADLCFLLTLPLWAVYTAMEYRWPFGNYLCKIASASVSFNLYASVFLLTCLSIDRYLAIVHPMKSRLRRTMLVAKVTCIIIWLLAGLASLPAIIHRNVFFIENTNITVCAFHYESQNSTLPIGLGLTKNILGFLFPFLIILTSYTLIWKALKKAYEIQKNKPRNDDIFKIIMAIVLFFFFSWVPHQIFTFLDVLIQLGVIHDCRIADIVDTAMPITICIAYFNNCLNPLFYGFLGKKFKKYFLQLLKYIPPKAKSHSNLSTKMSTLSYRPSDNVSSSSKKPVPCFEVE
Description: The ability to antagonize angiotensin-induced vasoconstriction was evaluated in the rabbit aorta test system.
New Zealand white rabbits (Hazelton, 2-3 kg) were sacrificed by cervical dislocation and the thoracic aortas were removed and cleaned of excess fat and connective tissue. Rings of tissue (3 mm wide) were mounted in 10 ml tissue baths between 2 L-shaped stainless steel hooks. The lower hook was attached to a stationary rod and the upper hook to a force displacement transducer (Grass model FT.03). The bath chambers were maintained at 37° C., aerated with 95% O2 /5% CO2, and contained physiological solution of the following composition (mM): NaCl, 117; glucose, 5.6; NaH2 PO4, 1.0; MgSO4, 0.7; KCl, 5.2; CaCl2, 1.8; NaHCO3, 26; and phentolamine HCl, 0.003.
Rings were equilibrated for 1 hour with 2 g of tension. During the equilibration period, the tissues were washed by overflow every 15 minutes. Rings were then exposed to 10^-8 M angiotensin II (AII) and were allowed to contract until a steady state was reached. Tissues were then washed every 15 minutes for 1 hour. This was repeated every hour until the AII response stabilized. A cumulative concentration-response curve to AII (10^-10 to 10^-7 M) was then obtained. At the conclusion of the concentration-response curve, tissues were washed every 2 minutes until baseline tension was reached, then every 15 minutes for 30 minutes. Compounds were added in a volume of 10 μl DMSO and allowed to incubate for 30 minutes before repeating the concentration-response curve to AII. Contractions to AII were expressed as a percent of the maximum contraction obtained in the control curve (the first AII concentration-response curve). EC50 's (concentration that contracted the tissues to 1/2 the control maximum) for each curve were calculated using a 4 parameter logistics model (NonLin, SAS institute).

angiotensin II receptor = assay: Adrenal Glomerulosa Test System: I125-angiotensin II binding to adrenal membranes; details: percent inhibition of I125 angiotensin binding at 10^-5 M of antagonist; rat adrenal membranes; 0.1 nM I125-angiotensin II
Description: The ability for compounds of Formula I to block angiotensin II receptor binding was determined using the adrenal glomerulosa assay.
Binding of I^125 -angiotensin II to adrenal membranes was routinely carried out in 96-well filtration plates. Adrenal membranes were prepared from the capsular portion (glomerulosal layer attached) of rat adrenal glands by differential centrifugation. Briefly, capsules were homogenized in a solution containing sucrose, 250 mM; MgCl2, 1 mM; and tris, 5 mM at pH 7.5 and 4° C. using a polytron at setting 5 for 20 seconds. The homogenate was stirred, gently, for 15 minutes at 4° C. and then centrifuged 10 minutes, at 1000×g, 4° C. The supernatant was centrifuged 30 minutes, at 30,000 ×g, 4° C. and the resulting pellet resuspended in 50 mM tris. Membrane preparations were stored in aliquots at -70° C. until used. Binding of I^125 -angiotensin II to adrenal membranes was performed at room temperature for 90 minutes in 96-well plates containing a hydrophilic polyvinylidene fluoride membrane (0.45 μm, millipore-GV multiscreen). Each 250 μl incubate contained the following (final concentration): tris, 50 mM; NaCl, 120 mM; MgCl2, 5 mM; dithiothrietol 1 mM; bovine serum albumin, 0.05%; I^125 -angiotensin II, 0.1 nM; and adrenal membrane protein, 8-15 μg. Antagonists were added in concentrations from 10 nM to 100 μM. Non-specific binding was measured in the presence of 0.1 μM Sar1, Ile8 angiotensin II. Binding was terminated by vacuum filtration. Receptor-ligand complex trapped on filters was washed 3 times with 300 μl ice-cold wash solution (tris, 50 mM; NaCl, 120 mM; MgCl2, 5 mM; dithiothrietol, 1 mM). Filter discs were dried, punched out and counted in a gamma counter at 52% efficiency. Specific binding represented 96% of total binding (approximately 150 fmol angiotensin II/mg protein). Data are expressed as the percent inhibition of I^125 angiotensin binding at 10^-5 M of antagonist.

[2] = pA2 = -log KB, KB = [molar concentration of antagonist]/[(EC50 AII with antagonist/EC50 AII without antagonist)-1], 30 min incubation, AII 10^-10 to 10^-7 M, read-out: Rabbit Aorta (pA2) (converted)

SMILES	Kb [1, 2] [µM]	Adrenal Glomerulosa (% Inhibition of Binding) (angiotensin II receptor) [%]	Kb [1] [µM]
CCCCCCC(c1nnn[nH]1)n1cnc(C(=O)NC(c2ccccc2)c2ccccc2)c1 (centres unmarked) [Example 48, 1-[1-(Tetrazol-5-yl)heptyl]-N-(diphenylmethyl)-1H-imidazole-4-carboxamide]	12	61	–
CCCCCCC(c1cccc(C(=O)NC(c2ccccc2)c2ccccc2)c1)c1nnn[nH]1 (centres unmarked) [Example 49, N-(Diphenylmethyl)-3-[1-(tetrazol-5-yl)-heptyl]benzamide]	40.7	9	–
CCCCCCC(c1nn[nH]n1)n1cnc(NC(=O)c2ccccc2C(=O)O)c1 (centres unmarked) [Example 50, 2-[({1-[1-(Tetrazol-5-yl)heptyl]-1H-imidazol-4-yl}amino)carbonyl]benzoic acid hemihydrate]	0.851	42	–
CCCCCCC(C(=O)O)n1cnc(NC(=O)C(c2ccccc2)c2ccccc2)c1.Cl (stereo not drawn) [Example 51, α-Hexyl-4-[(diphenylacetyl)amino]-1H-imidazole-1-acetic acid hydrochloride]	2.69	80	–
CCCCCCC(C(=O)O)n1cnc(C(=O)NC(c2ccccc2)c2ccccc2)n1.Cl (stereo not drawn) [Example 52, α-Hexyl-3-{[(diphenylmethyl)amino]carbonyl}-1H-1,2,4-triazole-1-acetic acid hydrochloride]	8.32	44	–
CCCCCCC(C(=O)O)n1ccc(C(=O)NC(c2ccccc2)c2ccccc2)c1 (stereo not drawn) [Example 53, 3-{[(Diphenylmethyl)amino]carbonyl}-α-hexyl-1H-pyrrole-1-acetic acid]	6.03	42	–
CCCCCCC(C(=O)O)n1cc(C(=O)NC(c2ccccc2)c2ccccc2)cn1 (stereo not drawn) [Example 54, 4-{[(Diphenylmethyl)amino]carbonyl}-α-hexyl-1H-pyrazole-1-acetic acid]	13.8	40	–
CCCCCC(C(=O)O)c1ccc(Oc2ccccc2C(=O)O)cc1 (stereo not drawn) [Example 55, α-Pentyl-4-(2-carboxyphenoxy)phenylacetic acid]	1.26	13	–
CCCCCCC(C(=O)O)c1ccc(C(=O)c2ccccc2C(=O)O)cc1 (stereo not drawn) [Example 56, α-Hexyl-4-(2-carboxybenzoyl)benzeneacetic acid]	1.05	75	–
CCCCCCC(C(=O)O)n1cnc(C(=O)NC2CCc3ccccc32)c1.Cl (stereo not drawn) [Example 57, 4-{[(2,3-Dihydro-1H-inden-1-yl)amino]-carbonyl}-α-hexyl-1H-imidazole-1-acetic acid hydrochloride]	2.63	77	–
CCCCCCC(C(=O)O)n1cnc(C(=O)NC(c2ccccc2)c2ccccc2)c1.Cl (stereo not drawn) [Example 58, 4-{[(Diphenylmethyl)amino]carbonyl}-α-hexyl-1H-imidazole-1-aceticacid hydrochloride]	4.27	69	–
CCCCCCC(C(=O)O)n1cnc(NC(=O)C2(O)c3ccccc3-c3ccccc32)c1 (stereo not drawn) [Example 59, α-Hexyl-4-[(9-hydroxy-9H-fluoren-9-ylcarbonyl)-amino]-1H-imidazole-1-acetic acid]	–	67	3.09
CCCCCC(CO)n1cnc(NC(=O)c2ccccc2C(=O)O)c1 (centres unmarked) [Example 60, 2-[({1-[1-(Hydroxymethyl)hexyl]-1H-imidazol-4-yl}amino)carbonyl]benzoic acid]	8.32	15	–
CCCCCCC(C(=O)O)n1cnc(NC(=O)c2ccccc2O)c1 (stereo not drawn) [Example 76, α-Hexyl-4-[(2-hydroxybenzoyl)amino]-1H-imidazole-1-acetic acid]	1.26	35	–
CCCCCCC(C(=O)O)n1cnc(NC(=O)c2c(O)ccc3ccccc23)c1 (stereo not drawn) [Example 77, α-Hexyl-4-{[(2-hydroxy-1-naphthalenyl)-carbonyl]amino}imidazole-1-acetic acid]	5.5	36	–
CCCCCCC(C(=O)O)n1cnc(NC(=O)c2cccc(O)c2)c1 (stereo not drawn) [Example 78, α-Hexyl-4-[(3-hydroxybenzoyl)amino]-1H-imidazole-1-acetic acid hemihydrate]	7.94	21	–
CCCCCCC(C(=O)O)n1cnc(NC(=O)c2ccc(O)c(O)c2)c1 (stereo not drawn) [Example 79, α-Hexyl-4-[(3,4-dihydroxybenzoyl)amino]-1H-imidazole-1-acetic acid (1.75 hydrate)]	11	18	–
CCCCCCC(C(=O)O)n1cnc(C(=O)Nc2ccccc2CO)c1.Cl (stereo not drawn) [Example 83, α-Hexyl-4-({[2-(hydroxymethyl)phenyl]-amino}carbonyl)-1H-imidazole-1-acetic acid hydrochloride]	3.89	53	–
CCCCCCC(C(=O)O)n1cnc(C(=O)Nc2ccccc2CCCCO)c1.Cl (stereo not drawn) [Example 84, α-Hexyl-4-({[2-(4-hydroxybutyl)phenyl]-amino}carbonyl)-1H-imidazole-1-acetic acid hydrochloride]	2.29	77	–
CCCCCCC(C(=O)O)n1cnc(C(=O)Nc2cccc(CO)c2)c1.Cl (stereo not drawn) [Example 85, α-Hexyl-4-({[3-(hydroxymethyl)phenyl]-amino}carbonyl)-1H-imidazole-1-acetic acid hydrochloride]	15.8	0	–
CCCCCCC(C(=O)O)n1cnc(C(=O)Nc2ccccc2CCO)c1.Cl (stereo not drawn) [Example 86, α-Hexyl-4-({[2-(2-hydroxyethyl)phenyl]-amino}carbonyl)-1H-imidazole-1-acetic acid hydrochloride]	3.24	57	–
CCCCCCC(C(=O)O)n1cnc(C(=O)Nc2ccc(CCO)cc2)c1.Cl (stereo not drawn) [Example 87, α-Hexyl-4-({[4-(2-hydroxyethyl)phenyl]-amino}carbonyl)-1H-imidazole-1-acetic acid hydrochloride]	23.4	7	–
CCCCC(C(=O)O)n1cnc(C(=O)Nc2ccccc2O)c1.Cl (stereo not drawn) [Example 89, α-Butyl-4-{[(2-hydroxyphenyl)amino]-carbonyl}-1H-imidazole-1-acetic acid hydrochloride]	38.9	54	–
CCCCCCC(C(=O)O)c1ccc(Cc2ccccc2C(=O)O)cc1 (stereo not drawn) [Example 94, 4-[(2-Carboxyphenyl)methyl]-α-hexyl-benzeneacetic acid]	1.66	58	–
CCCCCCC(C(=O)O)n1cnc(NC(=O)c2cccc(N)c2C(=O)O)c1 (stereo not drawn) [Example 96, α-Hexyl-4-[(3-amino-2-carboxybenzoyl)amino]-1H-imidazole-1-aceticacid]	0.372	59	–
